Data from US20240131004A1, “FUNCTIONALIZED 1,3-BENZENE DIOLS AND THEIR METHOD OF USE FOR THE TREATMENT OF INFLAMMATION AND PAIN” (KANNALIFE SCIENCES, INC., priority 2021, published 2024).
Entries after “also recorded” stand apart in the source; their conditions may differ.

Key:
GPR55 [1] = conditions: DRG neurons
Excerpt: (§1) Because of the recognized importance of sensory neurons in DRG to transmitting peripheral nociception (Krames, 2014) and the reported accumulation of paclitaxel in DRG from models of CIPN (Duggett et al., 2016), the preparation of choice for the in vitro studies to study protection and anti-inflammation was dissociated cultures from rat DRG. DRG cultures derived from embryonic day 18 rats were employed as the primary assay system to study KLS-13019-properties. In brief, DRG were obtained commercially through Brain Bits (Springfield, IL) and cultures prepared with slight modifications to methods previously described (Brenneman et al., 2019). Tissue was dissociated with a papain-based kit from Worthington Biochemical Corporation (Lakewood, NJ). The DRG cells were plated at low density (10,000 cells/well) in a 96-well format and maintained in serum-free medium consisting of Neurobasal Medium supplemented with B27, GlutaMAX (Gibco) and 25 ng/ml Nerve Growth Factor. Poly-D-lysine coated plates (BD Biosciences, Franklin Lakes, NJ) were employed for this culture system. Prior to the initiation of experiments between days 5 and 9 in vitro, a complete change of medium was performed in a working volume of 100 μL.
(§2) To assess all antibody-based assays, immunocytochemical methods were employed. The goals for these assays included: 1) to assess the immunoreactive area of our molecular targets (IL-1β, IL-6, GPR55, NLRPA3) with their respective primary antibodies and distinctively labeled secondary antibodies; and 2) to compare the relative responses in both neuronal cell bodies and neurites. Prior to fixation, growth medium was removed and the wells were rinsed one time with 100 μL of DPBS (37° C.). This warm rinse is particularly important to maintain structural stability of neurites. After removal of the DPBS, cultures were fixed for 20 min at room temperature with 50 μL/well of 3.5% formaldehyde (Sigma-Aldrich: 252549) in warm (37° C.) DPBS that contained 5.5 μg/mL of Hoechst 33342 dye (Invitrogen: H3570) to label cell nuclei. After removal of the fixative, the cultures were rinsed twice with 100 μL of DPBS and then a permeabilization/blocking buffer containing 5% normal goat serum and 0.3% triton-X100 in DPBS was added to the cultures for 10 min. After removal of the blocking buffer, the cultures were rinsed twice with 100 μL of DPBS and then primary antibodies were added for one-hour incubation at room temperature. Neurons were identified with antiserum to type III beta tubulin (tuj 1) to measure changes in all neuronal parameters. The primary antiserum employed was rabbit anti-rat obtained from Sigma-Aldrich (T2200) and used at 1:200 dilution. […]

interleukin-1β = conditions: 1 nM LPIA, after one hour of incubation, DRG neurons
Excerpt: as §1, §2

interleukin-6 = conditions: 1 nM LPIA, after one hour of incubation, DRG neurons
Excerpt: as §1, §2

GPR55 [2] = assay: Neuritic GPR55 immunoreactive area in DRG cultures, 6 h co-treatment with LPIA; format: cell-based, rat; conditions: 1 nM LPIA, 6 hours, DRG cultures
Excerpt: as §1
To assess all antibody-based assays, immunocytochemical methods were employed. The goals for these assays included: 1) to assess the immunoreactive area of our molecular targets (IL-1β, IL-6, GPR55, NLRPA3) with their respective primary antibodies and distinctively labeled secondary antibodies; and 2) to compare the relative responses in both neuronal cell bodies and neurites. Prior to fixation, growth medium was removed and the wells were rinsed one time with 100 μL of DPBS (37° C.). This warm rinse is particularly important to maintain structural stability of neurites. After removal of the DPBS, cultures were fixed for 20 min at room temperature with 50 μL/well of 3.5% formaldehyde (Sigma-Aldrich: 252549) in warm (37° C.) DPBS that contained 5.5 μg/mL of Hoechst 33342 dye (Invitrogen: H3570) to label cell nuclei. […]

NLRP3 = assay: Neuritic NLRP3 immunoreactive spot area in hippocampal neurons, LPIA reversal paradigm; format: cell-based, rat; conditions: 1 nM LPIA, hippocampal cultures
Excerpt: Tissue was dissociated with a papain-based kit from Worthington Biochemical Corporation (Lakewood, NJ).
To assess all antibody-based assays, immunocytochemical methods were employed. The goals for these assays included: 1) to assess the immunoreactive area of our molecular targets (IL-1β, IL-6, GPR55, NLRPA3) with their respective primary antibodies and distinctively labeled secondary antibodies; and 2) to compare the relative responses in both neuronal cell bodies and neurites. Prior to fixation, growth medium was removed and the wells were rinsed one time with 100 μL of DPBS (37° C.). This warm rinse is particularly important to maintain structural stability of neurites. After removal of the DPBS, cultures were fixed for 20 min at room temperature with 50 μL/well of 3.5% formaldehyde (Sigma-Aldrich: 252549) in warm (37° C.) DPBS that contained 5.5 μg/mL of Hoechst 33342 dye (Invitrogen: H3570) to label cell nuclei. After removal of the fixative, the cultures were rinsed twice with 100 μL of DPBS and then a permeabilization/blocking buffer containing 5% normal goat serum and 0.3% triton-X100 in DPBS was added to the cultures for 10 min. After removal of the blocking buffer, the cultures were rinsed twice with 100 μL of DPBS and then primary antibodies were added for one-hour incubation at room temperature. Neurons were identified with antiserum to type III beta tubulin (tuj 1) to measure changes in all neuronal parameters. The primary antiserum employed was rabbit anti-rat obtained from Sigma-Aldrich (T2200) and used at 1:200 dilution. The secondary was an Alexa Fluor 488-conjugated Fab fragment of goat anti-rabbit IgG obtained from Life Technologies (A11070) used at 1:600.

human GPR55 = molecular target: T1, human GPR55 (Homo sapiens, UniProt Q9Y2T6); assay: PathHunter β-arrestin assay, human GPR55 in CHO-K1 cell line; format: cell-based; conditions: 10 μM LPI
T1 construct: host or cells: CHO-K1
Description: In this assay, agonist-induced activation of GPR55 stimulates binding of β-arrestin to the Pro-link-tagged GPCR and forces complementation of two enzyme fragments, resulting in the formation of an active β-galactosidase enzyme. This interaction leads to an increase in enzyme activity that can be measured using chemiluminescent PathHunter detection reagents. For our application, the GPR55 agonist lysophosphatidylinositol (LPI) was tested from 0.1 nM to 30 μM to increase the relative luminescent signal relative to that of control. […] For the GPR55 antagonism assay, KLS-13019 concentrations ranging from 0.1 nM to 30 μM were tested in the presence of 16 μM LPI. Concentrations of KLS-13019 ranging from 0.1 nM to 30 μM were tested alone for possible effects of agonistic activity on β-arrestin.
A PathHunter β-arrestin assay is shown in FIG. 8 that provides a measure of an antagonist mode assessment of KLS-13019 with a human GPR55 model system (Eurofins). To measure the β-arrestin response to a GPR55 agonist, various concentrations of lysophosphatidylinositol (LPI) were used as shown in the closed circles. […] Based on these findings, 16 μM LPI was incubated with various concentrations of KLS-13019 to test for antagonistic properties (closed inverted triangles). […] All assays were conducted with an N=10.

T1 sequence (Q9Y2T6 whole entry): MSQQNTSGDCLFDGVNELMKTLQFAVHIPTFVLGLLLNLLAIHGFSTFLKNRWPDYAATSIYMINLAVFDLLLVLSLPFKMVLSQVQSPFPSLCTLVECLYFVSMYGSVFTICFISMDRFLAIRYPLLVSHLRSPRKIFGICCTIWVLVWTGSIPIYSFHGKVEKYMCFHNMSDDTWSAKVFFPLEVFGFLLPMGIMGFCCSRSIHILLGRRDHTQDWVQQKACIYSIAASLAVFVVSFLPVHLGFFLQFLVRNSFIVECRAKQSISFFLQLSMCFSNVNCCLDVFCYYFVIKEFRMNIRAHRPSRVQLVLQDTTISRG

Substance | Concentration producing a maximum effect on GPR55 IR area (GPR55 [1]; preliminary concentration-effect studies) [nM] | Effect on GPR55 IR area (GPR55 [1]; LPIA, after one hour of incubation) | Effect on neuritic IL-1β IR area (interleukin-1β) | Effect on neuritic IL-6 IR area (interleukin-6) | Effect of LPIA on neuritic GPR55 area (GPR55 [2]) | Effect of LPIA on neuritic NLRP3 spot area (NLRP3) | Agonist signal in β-arrestin assay (human GPR55)
lysophosphatidylinositol arachidonate [LPIA] | 1 | increases in GPR55 IR area | significant increases | significant increases | produced an increase in neuritic GPR55 | increased NLRP3 spot area | 
lysophosphatidylinositol [LPI, reference compound] |  |  |  |  |  |  | robust and reproducible signal; also recorded: robust agonist signal
